Reference: patent publication US20230416227A1, “PLASMA KALLIKREIN INHIBITORS” (Merck Sharp & Dohme LLC, priority 2020, published 2023)

Experiments:
[1] = biological target: human factor XIa (Homo sapiens, UniProt P03951); test: Factor XIa Assay; format: biochemical; settings: human factor XIa 0.04 nM, substrate GPR-AFC, 30 min pre-incubation at 25° C., pH 7.4; read-out: FXIa IC50
[2] = biological target: T1, Human plasma kallikrein (Homo sapiens, UniProt P03952); test: Plasma Kallikrein Assay; format: biochemical; settings: purified Human plasma kallikrein 0.5 nM, substrate Acetyl-K-P-R-AFC, pH 7.4
T1 construct: yields a heavy chain (371 amino acids) and a light chain (248 amino acids); purchased Enzyme Research Laboratories
T1 sequence (P03952 391-638 limits assumed): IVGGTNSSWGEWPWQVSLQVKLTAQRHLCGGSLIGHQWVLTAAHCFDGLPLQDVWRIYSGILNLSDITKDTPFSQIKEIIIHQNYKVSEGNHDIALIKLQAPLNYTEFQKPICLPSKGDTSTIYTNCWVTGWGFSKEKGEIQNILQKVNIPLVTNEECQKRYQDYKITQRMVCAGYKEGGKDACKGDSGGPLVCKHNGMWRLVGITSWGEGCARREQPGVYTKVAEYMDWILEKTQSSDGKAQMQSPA
T1 sequence (P03952 20-390 partner limits assumed): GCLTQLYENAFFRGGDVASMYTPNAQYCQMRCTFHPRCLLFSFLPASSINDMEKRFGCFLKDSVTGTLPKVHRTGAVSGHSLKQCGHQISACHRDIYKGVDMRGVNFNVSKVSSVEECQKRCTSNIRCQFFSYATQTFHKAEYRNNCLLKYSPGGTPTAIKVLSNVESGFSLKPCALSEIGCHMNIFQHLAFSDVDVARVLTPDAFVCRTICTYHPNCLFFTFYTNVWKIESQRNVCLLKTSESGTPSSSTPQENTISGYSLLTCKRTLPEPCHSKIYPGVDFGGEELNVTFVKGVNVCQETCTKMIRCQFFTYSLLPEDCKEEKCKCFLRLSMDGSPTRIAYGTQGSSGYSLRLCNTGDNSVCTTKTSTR

Chain of human factor XIa (P03951 388-625 limits assumed): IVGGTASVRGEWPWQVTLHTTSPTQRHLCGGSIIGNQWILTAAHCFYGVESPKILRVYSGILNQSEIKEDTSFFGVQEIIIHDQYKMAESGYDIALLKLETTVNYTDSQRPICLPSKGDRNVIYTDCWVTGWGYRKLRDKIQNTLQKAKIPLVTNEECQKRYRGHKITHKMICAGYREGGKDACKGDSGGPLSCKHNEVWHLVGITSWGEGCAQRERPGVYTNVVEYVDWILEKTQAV
Chain of human factor XIa (P03951 19-387 partner limits assumed): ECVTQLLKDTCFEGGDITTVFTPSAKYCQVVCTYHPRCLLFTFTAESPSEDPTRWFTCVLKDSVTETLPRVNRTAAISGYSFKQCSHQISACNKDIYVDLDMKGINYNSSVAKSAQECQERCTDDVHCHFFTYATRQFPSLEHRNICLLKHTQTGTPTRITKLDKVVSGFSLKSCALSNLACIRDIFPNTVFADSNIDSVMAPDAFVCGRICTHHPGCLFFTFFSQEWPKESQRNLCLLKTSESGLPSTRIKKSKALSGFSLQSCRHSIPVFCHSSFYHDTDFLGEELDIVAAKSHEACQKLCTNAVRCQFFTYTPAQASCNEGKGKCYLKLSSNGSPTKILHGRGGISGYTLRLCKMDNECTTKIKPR

Row | SMILES | IC50 [1] [nM] | IC50 [2] [nM]
1 | CC(c1cnc(N2CC3(CC3)C2)nc1)n1cc(NC(=O)c2cncc(-c3c(C(F)F)ccc(Cl)c3F)n2)cn1 (single isomer, unassigned) [Example 93, (R or S)-N-(1-(1-(2-(5-Azaspiro[2.3]hexan-5-yl)pyrimidin-5-yl)ethyl)-1H-pyrazol-4-yl)-6-(3-chloro-6-(difluoromethyl)-2-fluorophenyl)pyrazine-2-carboxamide] | 4310 | 19.9
2 | O=C(Nc1cnn(Cc2cnc(N3CC[C@@H]3CO)nc2)c1)c1cncc(-c2c(C(F)F)ccc(Cl)c2F)n1 [Example 111, (R)-6-(3-Chloro-6-(difluoromethyl)-2-fluorophenyl)-N-(1-((2-(2-(hydroxymethyl)azetidin-1-yl)pyrimidin-5-yl)methyl)-1H-pyrazol-4-yl)pyrazine-2-carboxamide] | 3000 | 46.5
3 | C[C@@H](c1cnc(N2CC(C)(F)C2)nc1)n1cc(NC(=O)c2cncc(-c3c(C(F)F)ccc(Cl)c3F)n2)cn1 [Example 101, (S)-6-(3-Chloro-6-(difluoromethyl)-2-fluorophenyl)-N-(1-(1-(2-(3-fluoro-3-methylazetidin-1-yl)pyrimidin-5-yl)ethyl)-1H-pyrazol-4-yl)pyrazine-2-carboxamide] | 7640 | 31.2
4 | C[C@@H](c1cnc(N2CCC2)nc1)n1cc(NC(=O)c2cncc(-c3c(C(F)F)ccc(Cl)c3F)n2)cn1 [Example 5, (S)-N-(1-(1-(2-(Azetidin-1-yl)pyrimidin-5-yl)ethyl)-1H-pyrazol-4-yl)-6-(3-chloro-6-(difluoromethyl)-2-fluorophenvl)pyrazine-2-carboxamide] | 1350 | 6.6
5 | NC(=O)c1cc(N2CCC2)ncc1Cn1cc(NC(=O)c2cncc(-c3c(C(F)F)ccc(Cl)c3F)n2)cn1 [Example 206, N-(1-((6-(Azetidin-1-yl)-4-carbamoylpyridin-3-yl)methyl)-1H-pyrazol-4-yl)-6-(3-chloro-6-(difluoromethyl)-2-fluorophenvl)pyrazine-2-carboxamide] | 820 | 24.4
6 | CC(c1cnc(N2CC[C@H]2CN2CC[C@H](O)[C@@H]2C)nc1)n1cc(NC(=O)c2cncc(-c3c(C(F)F)ccc(Cl)c3F)n2)cn1 (stereo partly drawn) [Example 161, 6-(3-Chloro-6-(difluoromethyl)-2-fluorophenyl)-N-(1-(1-(2-((S)-2-(((2S,3S)-3-hydroxy-2-methylpyrrolidin-1-yl)methyl)azetidin-1-yl)pyrimidin-5-yl)ethyl)-1H-pyrazol-4-yl)pyrazine-2-carboxamide] | 9630 | 2
7 | CC(c1cnc(N2CC3CC3C2)nc1)n1cc(NC(=O)c2cncc(-c3c(C(F)F)ccc(Cl)c3F)n2)cn1 (single isomer, unassigned) [Example 32, N-(1-((1R or 1S)-1-(2-(3-azabicyclo[3.1.0]hexan-3-yl)pyrimidin-5-yl)ethyl)-1H-pyrazol-4-yl)-6-(3-chloro-6-(difluoromethyl)-2-fluorophenyl)pyrazine-2-carboxamide] | 1520 | 8.1
8 | Cc1nc(N2CCC2)ncc1[C@H](C)n1cc(NC(=O)c2cncc(-c3c(C(F)F)ccc(Cl)c3F)n2)cn1 (single isomer, unassigned) [Example 69] | 8070 | 64.3
9 | CN(CC1CCCN1c1ncc(Cn2cc(NC(=O)c3cncc(-c4c(C(F)F)ccc(Cl)c4F)n3)cn2)cn1)CC1(O)CC1 (single isomer, unassigned) [Example 140, (S or R)-6-(3-Chloro-6-(difluoromethyl)-2-fluorophenyl)-N-(1-((2-(2-((((1-hydroxycyclopropyl)methyl)(methyl)amino)methyl)pyrrolidin-1-yl)pyrimidin-5-yl)methyl)-1H-pyrazol-4-yl)pyrazine-2-carboxamide] | 1290 | 0.2
10 | CC(c1cnc(N2CC[C@H]2CN2CCC(C)(O)C2)nc1)n1cc(NC(=O)c2cncc(-c3c(C(F)F)ccc(Cl)c3F)n2)cn1 (stereo partly drawn) [Example 166, 6-(3-Chloro-6-(difluoromethyl)-2-fluorophenyl)-N-(1-(1-(2-((2S)-2-((3-hydroxy-3-methylpyrrolidin-1-yl)methyl)azetidin-1-yl)pyrimidin-5-yl)ethyl)-1H-pyrazol-4-yl)pyrazine-2-carboxamide] | 5770 | 0.7
11 | Cc1nc(N2CCC2)ncc1Cn1cc(NC(=O)c2cncc(-c3c(C(F)F)ccc(Cl)c3F)n2)cn1 [Example 8, N-(1-((2-(Azetidin-1-yl)-4-methylpyrimidin-5-yl)methyl)-1H-pyrazol-4-yl)-6-(3-chloro-6-(difluoromethyl)-2-fluorophenyl)pyrazine-2-carboxamide] | 458 | 4.2
12 | CC(c1cnc(N2Cc3cnn(C)c3C2)nc1)n1cc(NC(=O)c2cncc(-c3c(C(F)F)ccc(Cl)c3F)n2)cn1 (stereo not shown) [Example 94, 6-(3-Chloro-6-(difluoromethyl)-2-fluorophenyl)-N-(1-(1-(2-(1-methyl-4,6-dihydropyrrolo[3,4-c]pyrazol-5(1H)-yl)pyrimidin-5-yl)ethyl)-1H-pyrazol-4-yl)pyrazine-2-carboxamide] | 8230 | 20
13 | O=C(Nc1cnn(Cc2cnc(N3CCC3)c(F)c2)c1)c1cncc(-c2c(C(F)F)ccc(Cl)c2F)n1 [Example 12, N-(1-((6-(Azetidin-1-yl)-5-fluoropyridin-3-yl)methyl)-1H-pyrazol-4-yl)-6-(3-chloro-6-(difluoromethyl)-2-fluorophenyl)pyrazine-2-carboxamide] | 3510 | 6.2
14 | CC(c1cnc(N2CCC2)cn1)n1cc(NC(=O)c2cncc(-c3c(C(F)F)ccc(Cl)c3F)n2)cn1 (single isomer, unassigned) [Example 29, (S or R)-N-(1-(1-(5-(azetidin-1-yl)pyrazin-2-yl)ethyl)-1H-pyrazol-4-yl)-6-(3-chloro-6-(difluoromethyl)-2-fluorophenyl)pyrazine-2-carboxamide] | 1770 | 20.7
15 | C[C@H]1[C@@H](O)CCN1C[C@@H]1CCCN1c1ncc(Cn2cc(NC(=O)c3cncc(-c4c(C(F)F)ccc(Cl)c4F)n3)cn2)cn1 [Example 146, 6-(3-Chloro-6-(difluoromethyl)-2-fluorophenyl)-N-(1-((2-((S)-2-(((2S,3S)-3-hydroxy-2-methylpyrrolidin-1-yl)methyl)pyrrolidin-1-yl)pyrimidin-5-yl)methyl)-1H-pyrazol-4-yl)pyrazine-2-carboxamide] | 7220 | 0.6
16 | O=C(Nc1cnn(Cc2ccc(N3CCC(O)C3)nc2)c1)c1cncc(-c2c(C(F)F)ccc(Cl)c2F)n1 (stereo not shown) [Example 123, 6-(3-Chloro-6-(difluoromethyl)-2-fluorophenyl)-N-(1-((6-(3-hydroxypyrrolidin-1-yl)pyridin-3-yl)methyl)-1H-pyrazol-4-yl)pyrazine-2-carboxamide] | 3330 | 27.3
17 | C[C@@H](O)CNCC1CCCN1c1ncc(Cn2cc(NC(=O)c3cncc(-c4c(C(F)F)ccc(Cl)c4F)n3)cn2)cn1 (stereo partly drawn) [Example 154, 6-(3-Chloro-6-(difluoromethyl)-2-fluorophenyl)-N-(1-((2-(2-((((R)-2-hydroxypropyl)amino)methyl)pyrrolidin-1-yl)pyrimidin-5-yl)methyl)-1H-pyrazol-4-yl)pyrazine-2-carboxamide] | 4130 | 1.2
